According to patent publication US20230089524A1, “COMPOSITIONS FOR USE IN THE INHIBITION OF DIHYDROOROTATE DEHYDROGENASE” (OHIO STATE INNOVATION FOUNDATION, priority 2019, published 2023):
Like-named read-outs stand apart in the source and are kept apart here.

Assays:
[1] = target: T1, h-DHODH (Homo sapiens, UniProt Q02127); assay: DHODH enzymatic assay (DCIP reduction at 600 nm); format: biochemical; settings: recombinant human enzyme, 25° C.
T1 construct: made in house
Experimental: DHODH Enzymatic Assay: DHODH activity was determined at 25° C. following the reduction of 2,6-dichloroindophenol sodium salt (DCIP) at 600 nm (ε=18 800 M^−1 cm^−1) on a spectrophotometer. The reaction medium used contained 50 mM Tris-HCl, pH 8.0, 0.1% Triton X-100, 0.1 mM LDHO, 0.025 mM CoQ1, and 0.06 mM DCIP. The reaction was started by addition of the enzyme. The inhibitory potency of the compounds was evaluated by measuring the initial velocity of the reaction either in the absence or in the presence of the compounds at the indicated concentrations. The DHODH enzyme used was the recombinant human enzyme prepared as previously described (Hélène Munier-Lehmann, et al., J. Med. Chem. 2015, 58:860-877).
(§1) Biological Activity. Cell proliferation assays were carried out using the MTS assay described herein using an AML cell line (i.e., OCI-AM L3) as described above. The assays were carried out in a blinded fashion. Assays were also carried out to assess the effect of representative disclosed compounds on DHODH activity.

[2] = test system: OCI-AML3 cell line; assay: MTS assay for cell growth/viability; format: cell-based; settings: Homo sapiens
Experimental: MTS assay for cell growth/viability: Mitochondrial activity was measured to determine cell proliferation using an MTS assay (tetrazolium dye 3-[4,5-dimethylthiazol-2-yl]-2,5-diphenyl-tetrazolium bromide). Metabolically active cells convert MTS tetrazolium salt into a purple formazan product that is soluble in tissue culture medium. The amount of formazan measured at 490 nm absorbance is proportional to the number of proliferating cells. MTS assays in AML cell lines were carried out with 20K cells plated per well in 96-well plates with Cpd3 or brequinar in a dose series ranging from 0.0001 to 10 μM. Triplicate wells were set up for each condition. At 96 hours, the MTS reagent was added and after approximately 4 hours the plates were read in a spectrophotometer.
as §1

[3] = OCI-AML-3, 96 hours, read-out: OCI-AML3 cell line IC50
[4] = OCI-AML-3, read-out: growth arrest in the OCI-AML3 cell line, IC50

T1 sequence (Q02127 whole entry): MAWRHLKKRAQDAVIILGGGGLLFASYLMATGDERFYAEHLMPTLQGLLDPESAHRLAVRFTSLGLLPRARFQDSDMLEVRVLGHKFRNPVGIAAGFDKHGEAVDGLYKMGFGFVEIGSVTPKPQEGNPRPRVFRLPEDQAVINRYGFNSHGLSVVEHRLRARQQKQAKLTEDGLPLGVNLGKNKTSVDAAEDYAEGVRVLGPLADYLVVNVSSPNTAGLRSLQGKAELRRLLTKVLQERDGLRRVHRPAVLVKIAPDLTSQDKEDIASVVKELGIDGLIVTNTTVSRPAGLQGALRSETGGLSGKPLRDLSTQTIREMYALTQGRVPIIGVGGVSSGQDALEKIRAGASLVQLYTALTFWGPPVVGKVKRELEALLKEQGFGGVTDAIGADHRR

CCOc1ccc(-c2csc(-c3cc(C(=O)O)c4cc(F)ccc4n3)c2)cc1 [Cpd1, 2-(4-(4-ethoxyphenyl)thiophen-2-yl)-6-fluoroquinoline-4-carboxylic acid]
IC50 [1]: 58 nM
IC50 [2, 3]: 413 nM
IC50 [2, 4]: 410 to 790 nM

CCOc1ccc(-c2ncc(-c3cc(C(=O)O)c4cc(F)ccc4n3)s2)cc1 [Cpd8, 2-(2-(4-ethoxyphenyl)thiazol-5-yl)-6-fluoroquinoline-4-carboxylic acid]
IC50 [1]: 472 nM
IC50 [2, 3]: > 10000 nM

CCOc1cccc(-c2csc(-c3cc(C(=O)O)c4cc(F)ccc4n3)c2)c1 [Cpd3, 2-(4-(3-ethoxyphenyl)thiophen-2-yl)-6-fluoroquinoline-4-carboxylic acid]
IC50 [1]: 200 nM
IC50 [2, 3]: 10900 nM

CCOc1ccc(-c2cnc(-c3cc(C(=O)O)c4cc(F)ccc4n3)s2)cc1 [Cpd6, 2-(5-(4-ethoxyphenyl)thiazol-2-yl)-6-fluoroquinoline-4-carboxylic acid]
IC50 [1]: 13900 nM
IC50 [2, 3]: > 10000 nM

CCOc1cccc(-c2ccc(-c3cc(C(=O)O)c4cc(F)ccc4n3)s2)c1 [Cpd4, 2-(5-(3-ethoxyphenyl)thiophen-2-yl)-6-fluoroquinoline-4-carboxylic acid]
IC50 [1]: 223 nM
IC50 [2, 3]: 3350 nM

CCOc1ccc(-c2ccc(-c3cc(C(=O)O)c4cc(F)ccc4n3)s2)cc1 [Cpd2, 2-(5-(4-ethoxyphenyl)thiophen-2-yl)-6-fluoroquinoline-4-carboxylic acid]
IC50 [1]: 212 nM
IC50 [2, 3]: 790 nM
IC50 [2, 4]: 410 to 790 nM

CCOc1ccc(-c2csc(-c3cc(C(=O)O)c4cc(F)ccc4n3)n2)cc1 [Cpd5, 2-(4-(4-ethoxyphenyl)thiazol-2-yl)-6-fluoroquinoline-4-carboxylic acid]
IC50 [1]: 524 nM
IC50 [2, 3]: 7410 nM

CCOc1ccc(-c2nc(-c3cc(C(=O)O)c4cc(F)ccc4n3)cs2)cc1 [Cpd7]
IC50 [1]: 85 nM
IC50 [2, 3]: 4920 nM
